Source: patent publication US20230074892A1, “BACTERIOPHAGE COMPOSITIONS AND USES THEREOF” (YALE UNIVERSITY, priority 2019, published 2023)

Key:
P. aeruginosa bacteria = assay: Pyocyanin level in culture supernatant after treatment; format: cell-based; conditions: for bacteria pyocyanin relative to untreated control: single treatment, culture supernatant
Description: Shown is bacteria pyocyanin relative to untreated control. […] When P. aeruginosa bacteria are exposed to treatments along x-axis, the supernatant of the culture is tested for pyocyanin level.

PA14 = assay: Pyocyanin production in bacterial cultures; format: cell-based, Pseudomonas aeruginosa; conditions: antibiotic alone
Description: Deletion of type-IV pili is shown to attenuate virulence in P. aeruginosa, by impairing pyocyanin production, twitching motility, and biofilm formation (Persat et al. (2015) Proc. Natl. Acad. Sci. 112:7563-7568). Phage TIVP-H6 selects for phage resistance in P. aeruginosa via bacterial alteration or loss of type-IV pili.

SMILES	killing of bacteria in the pyocyanin assay (P. aeruginosa bacteria)	bacteria pyocyanin relative to untreated control (P. aeruginosa bacteria)	effect of antibiotic on pyocyanin production (PA14)
CC[C@H]1OC(=O)[C@H](C)[C@@H](O[C@H]2C[C@@](C)(OC)[C@@H](O)[C@H](C)O2)[C@H](C)[C@@H](O[C@@H]2O[C@H](C)C[C@H](N(C)C)[C@H]2O)[C@](C)(O)C[C@@H](C)C(=O)[C@H](C)[C@@H](O)[C@]1(C)O [Eythromycin]	does not kill bacteria in this assay	causes reduced pyocyanin production	–
O=C(O)c1cn(C2CC2)c2cc(N3CCNCC3)c(F)cc2c1=O [Ciprofloxacin]	–	do not reducte production	either increased or did not affect
CC1(C)S[C@@H]2[C@H](NC(=O)C(C(=O)O)c3ccccc3)C(=O)N2[C@H]1C(=O)O (stereo partly drawn) [Carbenicillin]	–	do not reducte production	–
CCn1cc(C(=O)O)c(=O)c2ccc(C)nc21 [Nalidixic acid]	–	do not reducte production	–
